The subject of test [1] is E. coli ATCC 25922 (AECO001). Kind of test: MIC assay, CLSI broth microdilution. The class given is cell-based. As to conditions: Escherichia coli; ATCC25922; Mueller Hinton Broth, 35C, 20 hours. How it is done: (§1) Minimum inhibitory concentrations (MIC) were determined by reference Clinical and Laboratory Standards Institute (CLSI) broth microdilution methods per M7-A7 [2006]. Quality control ranges utilizing E. coli ATCC 25922, P. aeruginosa ATCC 27853 and S. aureus ATCC 29213, and interpretive criteria for comparator agents were as published in CLSI M100-S17 [2007]. Briefly, serial two-fold dilutions of the test compounds were prepared at 2× concentration in Mueller Hinton Broth. The compound dilutions were mixed in 96-well assay plates in a 1:1 ratio with bacterial inoculum. The inoculum was prepared by suspension of a colony from an agar plate that was prepared the previous day. Bacteria were suspended in sterile saline and added to each assay plate to obtain a final concentration of 5×10^5 CFU/mL. The plates were incubated at 35C for 20 hours in ambient air.
In general terms: Broth dilution looks for growth in wells or tubes with falling amounts of substance.

For test [2], the system named is P. aeruginosa ATCC 27853 (APAE001). The experiment in a line: MIC assay, CLSI broth microdilution. As to conditions: Pseudomonas aeruginosa; ATCC27853; Mueller Hinton Broth, 35C, 20 hours. The format is cell-based. As for the experimental part: as §1

This passage reports MIC results from US8372813B2, “Antibacterial aminoglycoside analogs” (Achaogen, Inc., priority 2008, dated 2013).

SMILES strings stand for the structures.

For `NCC[C@H](O)C(=O)N[C@@H]1C[C@H](N)[C@@H](O[C@H]2O[C@H](CNCCO)CC[C@H]2N)[C@H](O[C@@H]2O[C@H](CO)[C@@H](O[C@H]3O[C@@H](CN)[C@@H](O)[C@H](O)[C@H]3N)[C@H]2O)[C@H]1O` [1/20], the MIC in test [1] and in test [2] was at most 1 µg/mL each time.
